Data taken from article PMC10411619 (Chemical Science, 2023).

Biological target: cyt P460 (Nitrosomonas europaea, UniProt Q50927)
Test: biochemical

Chain of cyt P460 (Q50927 27-198): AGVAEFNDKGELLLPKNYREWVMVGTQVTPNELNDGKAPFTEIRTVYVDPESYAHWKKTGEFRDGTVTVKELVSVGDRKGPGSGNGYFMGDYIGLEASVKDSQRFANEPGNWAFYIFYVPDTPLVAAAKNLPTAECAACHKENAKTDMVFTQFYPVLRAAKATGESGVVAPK

## NO [NH2OH]
  Kd: 30 ± 0.7 mM
